Data taken from patent US20230044268A1, “AN IMPROVED PROCESS FOR PREPARATION OF LIRAGLUTIDE” (SHILPA MEDICARE LIMITED, priority 2019, published 2023).

Assay: storage stability of liraglutide obtained by the present process
Format: physicochemical
Details: storage of the isolated product; conditions not given
Source text: The present invention also relates to a process for the preparation of liraglutide, which is substantially pure having a purity of greater or equal to 99.5% and meeting the ICH guidelines. Further, the liraglutide obtained as per the present process is found devoid of any other process related impurities and is adequately stable to handle and store for longer time (at least up to more than 6 months) without any significant or measurable change in its morphology and physicochemical characteristics.

Substance: Liraglutide
- stable to handle and store without any significant or measurable change in morphology and physicochemical characteristics: more than 6 months
